Assay results published in US5882881A, “Inhibition of cyst formation by cytoskeletal specific drugs” (priority 1998, dated 1999).
Values joined by “and” are separate entries in the source; they are usually repeats but may differ in a detail not shown here. Equal values may be shown once. “Also recorded” adds a separate entry of the source.

What was measured:
[1] = test system: Murine CPK Cells; assay: In vitro cyst formation and cyst size in suspension culture of murine CPK cells; assay type: cell-based, mouse; conditions: for Cyst Size: mean ± SD of twenty cysts, concentrations as in Table II, control 71 ± 22; for cyst formation (in words): murine CPK cells, 24 h suspension culture, ouabain 0.5 mM, also 1 mM, b155 taxol 25 μM, colchicine 10 μM, vinblastine 1 μM, cytochalasins 10 μM, model species not given
Experimental: At 10, 21 and 28 days after birth, mice having congenital polycystic kidney disease (CPK) and their phenotypically normal littermates were sacrificed by cervical dislocation. Kidneys were harvested aseptically and washed with DMEM/F12 (Sigma Chemical Co., St. Louis, Mo.) in a 1:1 mix. Each decapsulated kidney was chopped into cubes (1 mm) and incubated in 5 ml of collagenase solution composed of 1 mg/ml collagenase type IV (Worthington Biochemical Corporation, Freehold, N.J.), 1 mg/ml egg white trypsin inhibitor (Worthington) in 1:1 DMEM/F12.
The top 12 mls, which contained both single cells and aggregates of up to 10 cells, as assessed by inverted phase-ontrast microscopy, were placed in 2 ml aliquots in the wells of plastic culture plates (Corning, N.Y.) precoated with 1% agarose in DMEM:F12 (2 ml in each well of a 6-well plate; 1 ml in each well of a 24-well plate). Cell samples were digested with further incubation for 10 minutes in 0.05% trypsin and 0.53 mM EDTA (Gibco, BRL Gaithesburg, Md.) at 37° C. All cultures were plated at a final density of 1-3×10^4 cell, per well. For growth studies of monolayer cells, identical preparations were grown on the plastic surface of the culture plates. Both the monolayers and the cell suspensions were incubated at 37° C. in a moisture saturated incubator in 5% CO2 and air.
(§1) I used the in vitro cyst formation system of the present invention to analyze compounds that affect the process of cyst formation. To determine the therapeutic effectiveness of an agent, cyst-forming cells are suspended in a medium to which the agent has been added. These cells are then cultured on a solid phase without formation of a layer of cells on the surface, such as in the assay system described in Example 1. The extent to which the cells actually form cysts can be detected and compared to the extent of cyst formation expected if no agent were added. If the amount of cyst formation is lower than expected, then the agent is a good candidate for therapeutic intervention of cystic diseases.
(§2) The effects of various metabolic inhibitors on cyst formation were studied in cultures derived from day 21 postnatal CPK mice. […] Taxol (25 μM), a microtubule specific inhibitor, was from Calbiochem (La Jolla, Calif.). All other chemicals were obtained from Sigma Chemical Co. Cytosine arabinoside was added at the final concentration of 20 μg/ml to inhibit DNA synthesis; α-amanitin at 100 ng/ml to inhibit RNA synthesis; cycloheximide at 40 μg/ml to inhibit protein synthesis; amiloride at 1 mM to inhibit the renal epithelial Na^+ -H^+ exchange; ouabain at 0.5 mM to inhibit Na^+ -K^+ -ATPase; brefeldin-A at 10 μg/ml to inhibit transport of surface proteins; griseofulvin at 350 μM to inhibit microtubule function; colchicine at 10 μM to inhibit microtubule polymerization; and cytochalasin-B and cytochalasin-D at 10 μM to depolymerize actin filaments.
(§3) In the presence of these metabolic inhibitors in vitro, cyst formation was noted to be either present or absent; if present, the diameters of 20 cysts from a 0.2 ml aliquot were measured. In the same samples, ^3 H-dThd incorporation was also measured as described above. […] After each wash, cell clusters were collected by centrifuging at 200×g for 1 minute and the supernatant discarded. Washed cell clusters were resuspended in the original volume of growth medium without inhibitors, placed in agarose coated wells and incubated at 37° C. in a moisture saturated incubator in 5% CO2 and air.
(§4) In this table, the mean cyst size is reported as ±SD with a measurement of twenty cysts. The ^3 H-dThd incorporation is reported as ±SD using measurements of three wells. The * indicates […] versus control. […] The entries listed as "NA" in the table indicate data that is not available.

[2] = test system: homozygous cpk mice; assay: Survival of cpk mice on weekly griseofulvin (Example 9); assay type: in vivo, mouse
Experimental: Although the mechanism of its inhibitory activity is not presently understood, this antifungal agent is known to have a colchicine-like effect on mitosis.
Nine homozygous cpk mice, raised and identified as in Example 6 were treated with 25 μl of 24 mg/ml griseofulvin in DMSO through intraperitoneal injection beginning 10-12 days after birth. After the first treatment, the mice were administered with the same treatment once every week thereafter.

[3] = test system: Murine CPK Cells; assay: In vitro cyst formation and cyst size in suspension culture of murine CPK cells; assay type: cell-based, mouse; conditions: day 21, 24 h, final concentration per Table II (cytosine arabinoside 20 μg/ml, α-amanitin 100 ng/ml, cycloheximide 49 μg/ml, ouabain 1 mM, amiloride 1 mM, brefeldin-A 10 μg/ml, griseofulvin 350 μM, colchicine 10 μM, vinblastine 1 μM, nocodazole 30 μM, taxol 25 μM, cytochalasins 10 μM)
[4] = test system: Murine CPK Cells; assay: 3H-thymidine incorporation (DNA synthesis) in CPK cell suspension culture; assay type: cell-based, mouse; conditions: ± SD, three wells; concentrations as in Table II; control 100 ± 11; 1440 min
Experimental: Growth studies were performed on kidney cells derived from day 10, 21 and 28 postnatal CPK mice and their normal littermates. Immediately after cells were placed in suspension or monolayer culture, 3 μCi of ^3 H-thymidine (^3 H-dThd, specific activity 45 Ci/mmol, Amersham, Ill.) was placed in each well of the culture plate. DNA synthesis was assessed by incorporation of ^3 H-dThd over the 24 hours of culture, and trichloroacetic acid-insoluble. radioactivity was expressed as cpm/μg protein. Protein was assayed with the BCA reagent as described by the manufacturer (Pierce, Rockford, Ill.). At 24 hours of culture, an aliquot (0.2 ml) of the suspension was removed and the number of cysts counted using an inverted microscope. The number of cysts was expressed as a ratio factored for the total number of cells in the suspension at 24 hours of culture. Cyst diameter was measured at 100× using an eyepiece micrometer.
as §2, §3, §4

[5] = test system: human ADPKD cells; assay: In vitro cyst formation in human ADPKD cells; assay type: cell-based
Excerpt: I have substituted human ADPKD cells for the murine CPK cells of Example 1 and produced similar results. Other cyst-forming cells are believed to also form suitable results with only minor deviations from the conditions set forth in Example 1.
Cell suspensions were separated from debris by sedimentation at unit gravity and decantation. After washing once with DMEM/F12 medium, cells were suspended in DMEM/F12 supplemented with 1.2 gm/l sodium bicarbonate, 1× insulin, transferrin and selenium (Sigma # 11184), 1% lipids supplement (Sigma # L4646) and 1× antibiotic/antimycotic (Sigma # A7292) at a density of 5×10^4 cells per ml. Two mls of the cell suspension were aliquoted into each well of a six-well plastic cell culture plates that had been precoated with 2 mls of 1% low melting point agarose in DMEM/F12 and incubated at 37° C. in a humidified atmosphere of 5% CO2 in air.
as §1

[6] = test system: Murine CPK Cells; assay: Cell viability, trypan blue exclusion, CPK suspension culture; conditions: 1.0 mM ouabain
Experimental: as §2, with “[…];” for “ouabain at 0.5 mM to inhibit Na^+ -K^+ -ATPase;”

[7] = test system: neonatal CPK kidneys; conditions: triiodothyronine pharmacological doses; ouabain 0.2 mM; cited from earlier work
[8] = test system: Na^+ K^+ -ATPase; conditions: triiodothyronine; ouabain 0.2 mM; cited from earlier work
[9] = test system: normal and polycystic human kidney epithelial cells; conditions: embedded in type 1 collagen; cited from earlier work

Compound | Cyst Size [1] [μm] | cyst formation (in words) [1] | Cyst Formation (+/-) [3] | proximal tubular cysts maintained / effect abolished [7] | renal Na^+ K^+ -ATPase activity (in words) [8] | induction of cysts [9] | further results
COC1=CC(=O)C[C@@H](C)[C@]12Oc1c(Cl)c(OC)cc(OC)c1C2=O [Griseofulvin] | 0 | inhibits the formation of cysts | - |  |  |  | minimum average lifespan ([2]; 25 μl of 24 mg/ml griseofulvin in DMSO i.p. weekly from 10-12 days, untreated controls 33.5±6.3 days, preliminary): at least 49±15.8 days; age of mice still alive ([2]; remaining three of nine mice, weekly griseofulvin i.p.): 78 days of age and 54 days of age and 63 days of age; age at death of individual mice ([2]; six of nine mice, weekly griseofulvin i.p.): 31 days of age and 34 days of age and 35 days of age and 41 days of age and 45 days of age and 60 days of age
C[C@@H]1O[C@@H](O[C@H]2C[C@@H](O)[C@]3(CO)[C@H]4[C@H](O)C[C@]5(C)[C@@H](C6=CC(=O)OC6)CC[C@]5(O)[C@@H]4CC[C@]3(O)C2)[C@H](O)[C@H](O)[C@H]1O [Ouabain] | 0 | not to inhibit cyst formation in these cells; also recorded: cyst inhibiting activity was observed; also recorded: did not prevent the formation of CPK cysts | - | abolished | decrease |  | ^3 H-dThd Incorporation [4]: 104 ± 9 % control; cyst formation (in words) ([5]; human ADPKD cells, cytosine arabinoside 20 μg/ml, α-amanitin 100 ng/ml, cycloheximide 40 μg/ml, amiloride 1 mM, ouabain 0.5 mM, taxol 25 μM, colchicine 10 μM, vinblastine 1 μM, cytochalasins 10 μM): potent inhibitor of cyst formation; also recorded: completely block cyst formation; also recorded: cyst formation can be blocked; time to lumen appearance after removing the inhibitor ([5]; human model): twenty-four; reversibility of inhibition of cyst formation ([5]; human model, inhibitor removed): reversible; cell death / reduction of cell viability (in words) [6]: extensive cell death; also recorded: large scale reduction of cell viability
C=C[C@@]1(C)CC(=O)[C@]2(O)[C@@]3(C)[C@@H](O)CCC(C)(C)[C@@H]3[C@H](O)[C@H](OC(C)=O)[C@@]2(C)O1 [forskolin] |  |  |  |  |  | can be induced to produce cysts | 
N[C@@H](Cc1cc(I)c(Oc2ccc(O)c(I)c2)c(I)c1)C(=O)O [triiodothyronine] |  |  |  | can be maintained | increase |  | 
epidermal growth factor: stimulates cyst formation of kidney epithelial cells in collagen |  |  |  |  |  | can be induced to produce cysts | 
